The source made the active and inactive calls. Rule as the data show it, for most assays here: actives have a measured Kd and inactives only a lower limit.

Kd data for twelve compounds are collected here from ChEMBL document CHEMBL3991601, “The target landscape of clinical kinase drugs” (Science, 2017).

Test [1] addresses Tyrosine-protein kinase Yes (Homo sapiens, UniProt P07947).
For test [2], the target named is Cyclin-dependent kinase 1 (Homo sapiens, UniProt P06493).
For test [3], the target named is Cyclin-dependent kinase 12 (Homo sapiens, UniProt Q9NYV4).
Sequence of Cyclin-dependent kinase 12 (Q9NYV4 whole entry): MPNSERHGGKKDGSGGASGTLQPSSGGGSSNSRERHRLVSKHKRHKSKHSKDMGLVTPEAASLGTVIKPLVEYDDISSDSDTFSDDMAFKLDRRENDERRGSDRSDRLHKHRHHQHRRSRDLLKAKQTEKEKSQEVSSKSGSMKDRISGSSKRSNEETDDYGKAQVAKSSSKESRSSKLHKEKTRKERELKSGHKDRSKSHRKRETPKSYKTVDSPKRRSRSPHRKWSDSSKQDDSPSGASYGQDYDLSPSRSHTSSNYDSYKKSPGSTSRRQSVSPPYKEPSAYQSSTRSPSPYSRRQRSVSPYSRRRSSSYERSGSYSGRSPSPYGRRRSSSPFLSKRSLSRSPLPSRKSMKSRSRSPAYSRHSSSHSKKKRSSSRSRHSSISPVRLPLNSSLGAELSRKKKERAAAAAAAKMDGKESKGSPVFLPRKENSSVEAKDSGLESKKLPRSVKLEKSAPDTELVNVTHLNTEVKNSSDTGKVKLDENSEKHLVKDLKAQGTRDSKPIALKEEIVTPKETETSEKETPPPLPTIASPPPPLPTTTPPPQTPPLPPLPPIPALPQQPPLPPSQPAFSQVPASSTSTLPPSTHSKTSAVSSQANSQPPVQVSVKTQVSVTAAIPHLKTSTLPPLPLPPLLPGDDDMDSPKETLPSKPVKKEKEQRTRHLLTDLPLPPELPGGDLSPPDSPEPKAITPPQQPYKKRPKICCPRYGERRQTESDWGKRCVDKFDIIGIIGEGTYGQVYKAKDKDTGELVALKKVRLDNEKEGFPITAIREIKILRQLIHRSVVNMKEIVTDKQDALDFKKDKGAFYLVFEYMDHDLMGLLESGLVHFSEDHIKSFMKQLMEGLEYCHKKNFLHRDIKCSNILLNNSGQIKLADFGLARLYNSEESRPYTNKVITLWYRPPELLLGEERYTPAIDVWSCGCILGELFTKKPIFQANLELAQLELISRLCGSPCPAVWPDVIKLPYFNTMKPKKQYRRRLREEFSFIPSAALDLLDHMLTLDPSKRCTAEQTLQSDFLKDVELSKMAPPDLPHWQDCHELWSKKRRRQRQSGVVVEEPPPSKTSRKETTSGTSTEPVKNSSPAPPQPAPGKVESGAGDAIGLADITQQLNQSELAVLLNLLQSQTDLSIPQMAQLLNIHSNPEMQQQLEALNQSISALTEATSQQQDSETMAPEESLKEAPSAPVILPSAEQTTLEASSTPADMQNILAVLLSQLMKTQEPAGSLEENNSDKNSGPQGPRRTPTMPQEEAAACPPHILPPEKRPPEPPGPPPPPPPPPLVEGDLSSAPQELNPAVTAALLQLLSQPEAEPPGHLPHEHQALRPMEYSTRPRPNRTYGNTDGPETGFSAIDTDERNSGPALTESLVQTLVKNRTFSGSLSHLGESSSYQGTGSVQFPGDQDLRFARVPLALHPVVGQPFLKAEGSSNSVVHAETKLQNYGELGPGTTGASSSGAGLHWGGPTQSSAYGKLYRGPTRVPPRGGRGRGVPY
For test [4], the target named is T1, ATP-dependent 6-phosphofructokinase, platelet type (Homo sapiens, UniProt Q01813).
T1 sequence (Q01813 whole entry): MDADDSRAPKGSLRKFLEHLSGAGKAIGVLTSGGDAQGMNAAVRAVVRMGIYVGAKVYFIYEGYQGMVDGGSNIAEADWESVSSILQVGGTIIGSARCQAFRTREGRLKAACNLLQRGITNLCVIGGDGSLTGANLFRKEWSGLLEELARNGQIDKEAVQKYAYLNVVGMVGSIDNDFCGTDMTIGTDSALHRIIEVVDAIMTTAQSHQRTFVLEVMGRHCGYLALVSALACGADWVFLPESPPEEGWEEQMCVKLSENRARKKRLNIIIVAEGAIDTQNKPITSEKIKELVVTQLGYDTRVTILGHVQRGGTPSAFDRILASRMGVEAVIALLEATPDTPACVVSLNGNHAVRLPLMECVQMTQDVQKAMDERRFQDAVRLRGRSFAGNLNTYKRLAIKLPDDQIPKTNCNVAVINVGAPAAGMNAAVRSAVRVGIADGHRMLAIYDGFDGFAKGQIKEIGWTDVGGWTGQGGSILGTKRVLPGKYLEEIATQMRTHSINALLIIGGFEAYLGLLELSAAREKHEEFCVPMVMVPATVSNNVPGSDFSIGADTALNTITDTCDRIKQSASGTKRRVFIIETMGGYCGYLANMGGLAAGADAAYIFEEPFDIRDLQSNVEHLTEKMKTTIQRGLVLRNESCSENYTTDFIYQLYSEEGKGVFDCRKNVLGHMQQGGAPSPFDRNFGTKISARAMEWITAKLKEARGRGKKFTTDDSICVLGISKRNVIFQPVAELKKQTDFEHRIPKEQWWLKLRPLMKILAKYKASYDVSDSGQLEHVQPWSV

For test [5], the target named is T2, Serine/threonine-protein kinase TAO3 (Homo sapiens, UniProt Q9H2K8).
T2 sequence (Q9H2K8 whole entry): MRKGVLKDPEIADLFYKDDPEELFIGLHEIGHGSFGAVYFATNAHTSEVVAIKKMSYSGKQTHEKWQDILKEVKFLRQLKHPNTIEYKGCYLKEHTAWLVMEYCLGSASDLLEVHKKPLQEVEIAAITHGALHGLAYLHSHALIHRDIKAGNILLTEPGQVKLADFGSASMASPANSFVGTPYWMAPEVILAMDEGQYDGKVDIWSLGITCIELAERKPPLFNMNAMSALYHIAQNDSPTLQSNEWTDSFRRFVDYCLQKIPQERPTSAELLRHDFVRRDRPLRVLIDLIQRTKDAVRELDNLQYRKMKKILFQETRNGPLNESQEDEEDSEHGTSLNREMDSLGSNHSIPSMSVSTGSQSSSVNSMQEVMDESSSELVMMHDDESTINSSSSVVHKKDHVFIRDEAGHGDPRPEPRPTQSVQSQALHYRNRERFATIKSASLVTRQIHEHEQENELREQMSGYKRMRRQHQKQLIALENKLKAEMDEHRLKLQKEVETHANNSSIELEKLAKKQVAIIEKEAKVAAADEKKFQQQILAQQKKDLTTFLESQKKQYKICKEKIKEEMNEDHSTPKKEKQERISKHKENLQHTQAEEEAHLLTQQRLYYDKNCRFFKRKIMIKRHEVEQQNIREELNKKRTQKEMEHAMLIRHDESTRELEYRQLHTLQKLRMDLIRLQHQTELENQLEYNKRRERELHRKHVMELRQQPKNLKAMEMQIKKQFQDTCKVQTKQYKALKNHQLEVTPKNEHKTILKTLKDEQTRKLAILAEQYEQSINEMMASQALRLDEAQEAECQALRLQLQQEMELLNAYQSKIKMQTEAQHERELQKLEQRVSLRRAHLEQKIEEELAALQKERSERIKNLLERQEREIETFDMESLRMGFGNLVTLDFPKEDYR

Test [6] concerns the target T3, ADP/ATP translocase 3 (Homo sapiens, UniProt P12236).
T3 sequence (P12236 whole entry): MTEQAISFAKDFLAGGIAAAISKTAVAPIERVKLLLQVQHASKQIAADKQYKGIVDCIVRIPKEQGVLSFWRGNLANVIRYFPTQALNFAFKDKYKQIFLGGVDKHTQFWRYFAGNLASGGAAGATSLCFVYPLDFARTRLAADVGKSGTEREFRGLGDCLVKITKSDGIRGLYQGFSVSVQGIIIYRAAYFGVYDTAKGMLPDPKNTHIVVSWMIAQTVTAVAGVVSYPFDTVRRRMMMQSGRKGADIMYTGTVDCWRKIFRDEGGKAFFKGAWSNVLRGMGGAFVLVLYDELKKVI

Test [7] has as its target T4, Phosphorylase b kinase gamma catalytic chain, liver/testis isoform (Homo sapiens, UniProt P15735).
T4 sequence (P15735 whole entry): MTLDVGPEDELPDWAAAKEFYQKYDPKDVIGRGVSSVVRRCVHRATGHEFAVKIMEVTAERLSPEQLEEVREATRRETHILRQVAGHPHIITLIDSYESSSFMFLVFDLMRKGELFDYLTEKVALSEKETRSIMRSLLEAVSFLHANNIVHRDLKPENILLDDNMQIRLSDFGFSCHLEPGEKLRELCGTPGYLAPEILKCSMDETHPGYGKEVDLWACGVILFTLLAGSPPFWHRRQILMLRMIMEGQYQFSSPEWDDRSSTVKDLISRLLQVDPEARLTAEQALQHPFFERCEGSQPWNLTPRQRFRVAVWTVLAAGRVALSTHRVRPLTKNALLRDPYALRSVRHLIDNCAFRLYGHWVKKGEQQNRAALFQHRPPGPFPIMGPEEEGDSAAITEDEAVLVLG
Also: in the data inactive means no Kd found up to 30 µM.

Sequence of Tyrosine-protein kinase Yes (P07947 whole entry): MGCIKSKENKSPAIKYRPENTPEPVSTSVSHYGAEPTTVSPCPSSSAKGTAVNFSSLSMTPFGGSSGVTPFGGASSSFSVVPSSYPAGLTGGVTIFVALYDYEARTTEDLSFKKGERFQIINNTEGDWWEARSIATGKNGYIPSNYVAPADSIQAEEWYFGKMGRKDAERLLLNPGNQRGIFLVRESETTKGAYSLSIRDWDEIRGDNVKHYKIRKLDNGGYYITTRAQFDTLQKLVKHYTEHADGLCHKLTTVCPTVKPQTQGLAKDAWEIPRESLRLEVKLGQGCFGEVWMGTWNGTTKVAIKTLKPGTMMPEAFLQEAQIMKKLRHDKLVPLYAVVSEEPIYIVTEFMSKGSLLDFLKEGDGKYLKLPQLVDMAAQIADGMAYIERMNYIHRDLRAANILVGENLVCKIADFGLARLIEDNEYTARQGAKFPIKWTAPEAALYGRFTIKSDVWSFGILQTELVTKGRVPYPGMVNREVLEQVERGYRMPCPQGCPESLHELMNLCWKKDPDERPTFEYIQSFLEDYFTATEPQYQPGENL
Sequence of Cyclin-dependent kinase 1 (P06493 whole entry): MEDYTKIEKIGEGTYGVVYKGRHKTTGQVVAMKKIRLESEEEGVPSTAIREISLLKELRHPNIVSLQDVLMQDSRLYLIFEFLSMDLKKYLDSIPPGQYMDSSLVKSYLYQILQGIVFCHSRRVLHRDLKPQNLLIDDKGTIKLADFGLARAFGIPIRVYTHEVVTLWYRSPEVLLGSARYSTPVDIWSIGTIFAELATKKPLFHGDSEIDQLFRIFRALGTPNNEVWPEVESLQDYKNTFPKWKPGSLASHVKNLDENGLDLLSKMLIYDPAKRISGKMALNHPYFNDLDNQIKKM

`Cn1c(=O)n(-c2ccc(C(C)(C)C#N)cc2)c2c3cc(-c4cnc5ccccc5c4)ccc3ncc21` [DACTOLISIB]: the Kd in test [1], in test [2], in test [3], in test [4], in test [5] and in test [6] was > 30 µM (inactive) throughout. Besides, the Kd in test [7] is > 30 µM (inactive).
For `C[C@@]1(C(=O)Nc2ccc(F)nc2)CCCN1c1nc(Nc2cc(C3CC3)n[nH]2)c2cccn2n1` [BMS-754807], the Kd in test [2], in test [3], in test [4] and in test [6] was > 30 µM (inactive) in each case.
Take `CN(c1ncccc1CNc1nc(Nc2ccc3c(c2)CC(=O)N3)ncc1C(F)(F)F)S(C)(=O)=O` [PF-00562271]: the Kd is > 30 µM (inactive) in test [1]; 1.51 µM (active) in test [2]; > 30 µM (inactive) in test [3]; > 30 µM (inactive) in test [4]; 11.9 µM (active) in test [5]; > 30 µM (inactive) in test [6].
`COc1cc2c(Oc3ccc4[nH]c(C)cc4c3F)ncnc2cc1OCCCN1CCCC1` [CEDIRANIB]: the Kd in test [2], in test [3], in test [4] and in test [6] was > 30 µM (inactive) each time.
As to `Cn1cnc2c(F)c(Nc3ccc(Br)cc3Cl)c(C(=O)NOCCO)cc21` [SELUMETINIB], the Kd in test [2], in test [3], in test [4] and in test [6] was > 30 µM (inactive) each time.
With `COc1cc2c(N3CCN(C(=O)Nc4ccc(OC(C)C)cc4)CC3)ncnc2cc1OCCCN1CCCCC1` [TANDUTINIB], the Kd in test [3] and in test [6] was > 30 µM (inactive) throughout.
On to `CCN(CCCOc1ccc2c(Nc3cc(CC(=O)Nc4cccc(F)c4)n[nH]3)ncnc2c1)CCOP(=O)(O)O` [BARASERTIB], for which the Kd in test [1], in test [2], in test [3], in test [4], in test [5] and in test [6] was > 30 µM (inactive) in each case. Also, the Kd in test [7] was > 30 µM (inactive).
As to `CC1(C)CNc2cc(NC(=O)c3cccnc3NCc3ccncc3)ccc21` [MOTESANIB], the Kd in test [2], in test [3], in test [4] and in test [6] was > 30 µM (inactive) each time.
In the case of `Cn1cc(-c2[nH]c3cc(NC(=O)[C@H](N)C4CCCCC4)cc4c3c2C=NNC4=O)cn1`, the Kd in test [1] is 0.623 µM (active); in test [2], > 30 µM (inactive); in test [3], > 30 µM (inactive); in test [4] it was > 30 µM (inactive); in test [5] it was > 30 µM (inactive); in test [6], > 30 µM (inactive). Further, the Kd in test [7] was > 30 µM (inactive).
Consider `CN(C)C/C=C/C(=O)Nc1cc2c(Nc3ccc(F)c(Cl)c3)ncnc2cc1O[C@H]1CCOC1` [AFATINIB], for which the Kd in test [2], in test [3] and in test [6] was > 30 µM (inactive) each time.
`COc1cc2nccc(Oc3ccc(NC(=O)C4(C(=O)Nc5ccc(F)cc5)CC4)cc3)c2cc1OC` [CABOZANTINIB]: the Kd in test [1], in test [2], in test [3], in test [4], in test [5] and in test [6] was > 30 µM (inactive) throughout. Besides, the Kd in test [7] was > 30 µM (inactive).
With `C[C@]1(O)C[C@@H](c2nc(-c3ccc4ccc(-c5ccccc5)nc4c3)c3c(N)nccn32)C1` [LINSITINIB], the Kd in test [1], in test [3], in test [4], in test [5] and in test [6] was > 30 µM (inactive) throughout.
